# From patent publication EP0043274A2, “Antithrombotic treatment” (priority 1980, dated 1982)
# Where “and” joins values, the source holds several entries; their conditions need not be identical. Equal values may be shown once. Where a name gives a salt, the structure may show the parent alone. Read-outs that look alike come from different tables or passages of the source.
# How the values were obtained:
# [1] = test system: human plasma; assay type: biochemical; conditions: for PTT(seconds) Exp. 2 A: Active Agent 0.5/ml, test sequences A and B, control 50.5 (A), 44.5 (B)
# [2] = test system: human plasma; assay type: biochemical
# [3] = amine hydrochlorides, control plasma 31.2
# [4] = amine hydrochlorides, control plasma 31.3
# [5] = amine hydrochlorides, control plasma 12.5
# [6] = amine hydrochlorides, control plasma 13.0
# [7] = amine bisulfites, control plasma 37.5 / 38.2
# [8] = amine bisulfites, control plasma 37.8 / 39.2
# [9] = amine bisulfites, control plasma 12.8 / 13.1
# [10] = amine bisulfites, control plasma 13.1 / 13.0
# [11] = amine hydrochlorides, control plasma 13.5
# [12] = in vitro, concentration not given
# [13] = 0.5 mg/ml, two different days, control 42.6 / 42.10
# [14] = coded agents 0.5mg/ml, […], control 43.38
# [15] = coded agents 0.5mg/ml, […], control 12.92
# [16] = 0.5 mg/ml, two different days, control 13.40
compound,measurement,setting,value
"2-octanome [Example 2-octanome, reference compound]",PTT (effect in words),"[1]; in vitro, 0.5 mg/ml",minimal effect
same,PT (effect in words),"[2]; in vitro, 0.5 mg/ml",minimal effect
CN1CCOCC1 [4-METHYL MORPHOLINE],PTT REPLICATIONS 1,[1],63.5
same,PTT REPLICATIONS 2,[1],61.3
same,PTT REPLICATIONS 3,[1],60.6
same,PT REPLICATIONS 1,[2],21.3
same,PT REPLICATIONS 2,[2],21.5
same,PT REPLICATIONS 3,[2],20.4
"C=CCN [ALLYL AMINE HYDROCHLORIDE, reference compound]",PTT 1,[1],31.6
same,PTT 3,[1]; [3],32.4
same,PTT 2,[1]; [4],30.5
same,PT 3,[2],14.4
same,PT 2,[2]; [5],13.2
same,PT 1,[2]; [6],13.2
C=CCN [ALLYL AMINE],PTT REPLICATIONS 2,[1],46.9
same,PTT REPLICATIONS 1,[1]; [7],47.1
same,PTT REPLICATIONS 3,[1]; [8],44.9
same,PT REPLICATIONS 1,[2]; [9],16.1
same,PT REPLICATIONS 2,[2]; [9],16.0
same,PT REPLICATIONS 3,[2]; [10],15.6
Nc1ccccc1 [ANILINE],PTT REPLICATIONS 2,[1],44.9
same,PTT REPLICATIONS 1,[1]; [7],45.4
same,PTT REPLICATIONS 3,[1]; [8],42.9
same,PT REPLICATIONS 1,[2]; [9],16.0
same,PT REPLICATIONS 2,[2]; [9],16.9
same,PT REPLICATIONS 3,[2]; [10],16.0
"Cl.NC1CCCCC1 [CYCLOHEXYL AMINE HYDROCHLORIDE, reference compound]",PTT 1,[1],32.5
same,PTT 3,[1]; [3],34.3
same,PTT 2,[1]; [4],32.7
same,PT 2,[2]; [5],13.6
same,PT 1,[2]; [6],13.8
same,PT 3,[2]; [11],13.5
"C=CCNCC=C.Cl [DIALLYL AMINE HYDROCHLORIDE, reference compound]",PTT 1,[1],30.5
same,PTT 3,[1]; [3],30.4
same,PTT 2,[1]; [4],30.7
same,PT 2,[2]; [5],13.1
same,PT 1,[2]; [6],12.8
same,PT 3,[2]; [11],13.5
C=CCNCC=C [DIALLYL AMINE],PTT REPLICATIONS 2,[1],39.6
same,PTT REPLICATIONS 1,[1]; [7],38.8
same,PTT REPLICATIONS 3,[1]; [8],39.1
same,PTT (effect in words),[1]; [12],low activity
same,PT REPLICATIONS 1,[2]; [9],13.4
same,PT REPLICATIONS 2,[2]; [9],13.7
same,PT REPLICATIONS 3,[2]; [10],13.8
same,PT (effect in words),[2]; [12],low activity
NCCO [ETHANOL AMINE],PTT REPLICATIONS 2,[1],66.1
same,PTT REPLICATIONS 1,[1]; [7],65.3
same,PTT REPLICATIONS 3,[1]; [8],61.1
same,PT REPLICATIONS 1,[2]; [9],19.3
same,PT REPLICATIONS 2,[2]; [9],20.5
same,PT REPLICATIONS 3,[2]; [10],18.4
"O=C(O)CC(S)C(=O)O (stereo not drawn) [Example A2, Mercaptosuccinic acid, reference compound]",PTT,[1]; [13],52.6 s
same,PTT,[1]; [14],48.70 s
same,PT,[2],14.7 s
same,PT,[2]; [15],14.60 s
"O=C(O)/C(O)=C(/O)C(=O)O [Example A3, Dihydroxymaleic acid 2 H2O, reference compound]",PTT,[1]; [14],53.00 s
same,PT,[2]; [15],14.95 s
C1COCCN1 [MORPHOLINE],PTT REPLICATIONS 1,[1],66.8
same,PTT REPLICATIONS 2,[1],61.8
same,PTT REPLICATIONS 3,[1],51.7
same,PT REPLICATIONS 1,[2],19.3
same,PT REPLICATIONS 2,[2],21.0
same,PT REPLICATIONS 3,[2],17.5
"CN(C)C1CCCCC1 [N,N-DIMETHYL CYCLOHEXYL AMINE]",PTT REPLICATIONS 2,[1],62.1
same,PTT REPLICATIONS 1,[1]; [7],60.1
same,PTT REPLICATIONS 3,[1]; [8],58.9
same,PT REPLICATIONS 1,[2]; [9],18.9
same,PT REPLICATIONS 2,[2]; [9],20.4
same,PT REPLICATIONS 3,[2]; [10],19.8
CNC1CCCCC1 [N-METHYL CYCLOHEXYL AMINE],PTT REPLICATIONS 2,[1],61.8
same,PTT REPLICATIONS 1,[1]; [7],60.6
same,PTT REPLICATIONS 3,[1]; [8],61.6
same,PT REPLICATIONS 1,[2]; [9],20.5
same,PT REPLICATIONS 2,[2]; [9],20.3
same,PT REPLICATIONS 3,[2]; [10],20.4
"Cl.c1ccncc1 [PYRIDINE HYDROCHLORIDE (CRYSTALS), PYRIDINE HYDROCHLORIDE, reference compound]",PTT 1,[1]; HYDROCHLORIDE,31.3
same,PTT 2,[1]; HYDROCHLORIDE,31.1
same,PTT 3,[1]; HYDROCHLORIDE,32.2
same,PT 1,[2]; HYDROCHLORIDE,12.9
same,PT 2,[2]; HYDROCHLORIDE,12.8
same,PT 3,[2]; HYDROCHLORIDE,14.0
"Cl.c1ccncc1 [PYRIDINE HYDROCHLORIDE (POWDER), PYRIDINE HYDROCHLORIDE, reference compound]",PTT 1,[1]; HYDROCHLORIDE,30.5
same,PTT 2,[1]; HYDROCHLORIDE,30.8
same,PTT 3,[1]; HYDROCHLORIDE,31.1
same,PT 1,[2]; HYDROCHLORIDE,12.6
same,PT 2,[2]; HYDROCHLORIDE,12.5
same,PT 3,[2]; HYDROCHLORIDE,13.8
c1ccncc1 [PYRIDINE],PTT REPLICATIONS 1,[1],80.0
same,PTT REPLICATIONS 2,[1],71.1
same,PTT REPLICATIONS 3,[1],59.3
same,PT REPLICATIONS 1,[2],29.3
same,PT REPLICATIONS 2,[2],27.8
same,PT REPLICATIONS 3,[2],27.2
O=S([O-])S(=O)(=O)[O-].[K+].[K+] [Potassium Metabisulfite],PTT(seconds) Exp. 1 A,[1],77.6 s and 91.6 s
same,PTT,[1]; [13],80.60 s
same,PTT(seconds) Exp. 2 A,[1],111.3 s and 105.2 s
same,PTT,[1]; [14],83.84 s
same,PT,[2],18.76 s
same,PT(seconds) Exp. 1 A,[2],18.3 s and 20.4 s
same,PT(seconds) Exp. 2 A,[2],22.0 s
same,PT,[2]; [15],19.34 s
"O=S(O)CO [SO2, Sodium formaldehyde sulfoxalate, reference compound]",PTT sec,[1]; [13],45.1 (53.8) sec
same,PTT,[1]; [14],49.22 s
same,PT,[2],13.8 s
same,PT,[2]; [15],14.94 s
"CCN(CC)C(=S)S [SO4, Sodium diethyl dithiocarbamate, reference compound]",PTT,[1]; [13],48.1 s
same,PTT,"[1]; coded agents 0.5mg/ml, mean values of 5 replications, control 43.38",49.60 s
same,PT,[2],13.6 s
same,PT,[2]; [15],14.02 s
O=S([O-])S(=O)(=O)[O-].[Na+].[Na+] [Sodium Metabisulfite],PTT(seconds) Exp. 1 A,[1],76.9 s
same,PTT,[1]; [13],77.75 s
same,PT,[2],19.56 s
same,PT(seconds) Exp. 1 A,[2],18.5 s
same,PT(seconds) Exp. 2 A,[2],21.9 s
CC(C)(C)N [TERT-BUTYL AMINE],PTT REPLICATIONS 2,[1],68.9
same,PTT REPLICATIONS 1,[1]; [7],68.2
same,PTT REPLICATIONS 3,[1]; [8],69.0
same,PT REPLICATIONS 1,[2]; [9],21.7
same,PT REPLICATIONS 2,[2]; [9],21.8
same,PT REPLICATIONS 3,[2]; [10],21.8
"CCN(CC)CC.Cl [TRIETHYLAMINE HYDROCHLORIDE, reference compound]",PTT 1,[1],32.0
same,PTT 2,[1],31.5
same,PTT 3,[1],34.5
same,PT 1,[2],12.8
same,PT 2,[2],12.7
same,PT 3,[2],13.5
"CCCC[N+](CCCC)(CCCC)CCCC.[Br-] [Tetrabutyl Ammonium Bromide, reference compound]",PTT (effect in words),[1],little or no effect
same,PTT sec,[1],38.3 s
same,PT (effect in words),[2],little or no effect
same,PT sec.,[2],12.4 s
"C[N+](C)(C)C [Tetramethyl Ammonium Bromide, reference compound]",PTT sec,"[1]; 0.5 mg/ml, human plasma, control 38.1",38.5 s
same,PTT (effect in words),"[1]; in vitro, 0.5 mg/ml",little or no effect
same,PT sec.,[2],12.5 s
same,PT (effect in words),"[2]; in vitro, 0.5 mg/ml",little or no effect
"CC(C)=O [acetone, reference compound]",PTT (effect in words),"[1]; in vitro, 0.5 mg/ml",minimal effect
same,PT (effect in words),"[2]; in vitro, 0.5 mg/ml",minimal effect
Ammonium Sulfite,PTT(seconds) Exp. 1 A,[1],56.5 s
same,PTT,[1]; [13],58.80 s
same,PTT(seconds) Exp. 2 A,[1],65.2 s
same,PT,[2],16.08 s
same,PT(seconds) Exp. 1 A,[2],14.7 s
same,PT(seconds) Exp. 2 A,[2],16.9 s
Na2SO4 [reference compound],PTT,[1]; [13],44.2 s
same,PT,[2]; [16],13.6 s
Na Sulfide [reference compound],PTT,[1]; [13],78.50 s
same,PT,[2]; [16],21.12 s
Na-hydrosulfite [reference compound],PTT sec,[1]; [13],45.2 (39.0) sec
same,PT,[2]; [16],14.4 s
Na-phosphite [reference compound],PT,[2]; [16],12.9 s
